# In US9725445B2, “Cycloalkyl nitrile pyrazolo pyridones as Janus kinase inhibitors” (Merck Sharp & Dohme Corp., priority 2013, dated 2017):
# Like-named read-outs stand apart in the source and are kept apart here.
# Experiments:
# JAK1 = JAK1 (Homo sapiens (Human), UniProt P23458); assay: Jak biochemical HTRF assay, JAK1; settings: recombinant GST-tagged catalytic domain
# JAK2 = JAK2 (Homo sapiens (Human), UniProt O60674); assay: Jak biochemical HTRF assay, JAK2; settings: recombinant GST-tagged catalytic domain
# Sequence of JAK2 (O60674 849-1124): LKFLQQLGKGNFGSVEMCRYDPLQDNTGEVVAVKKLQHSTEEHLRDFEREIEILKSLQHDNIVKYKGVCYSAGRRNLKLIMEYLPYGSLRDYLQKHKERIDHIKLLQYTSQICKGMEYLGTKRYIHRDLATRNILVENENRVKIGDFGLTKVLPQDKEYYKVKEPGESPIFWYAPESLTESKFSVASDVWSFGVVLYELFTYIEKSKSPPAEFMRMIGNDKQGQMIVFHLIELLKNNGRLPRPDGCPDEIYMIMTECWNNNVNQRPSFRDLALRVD
# [1] = HTRF biochemical assay, read-out: JAK1 IC50
# [2] = HTRF biochemical assay, read-out: JAK2 IC50
# Sequence of JAK1 (P23458 875-1153): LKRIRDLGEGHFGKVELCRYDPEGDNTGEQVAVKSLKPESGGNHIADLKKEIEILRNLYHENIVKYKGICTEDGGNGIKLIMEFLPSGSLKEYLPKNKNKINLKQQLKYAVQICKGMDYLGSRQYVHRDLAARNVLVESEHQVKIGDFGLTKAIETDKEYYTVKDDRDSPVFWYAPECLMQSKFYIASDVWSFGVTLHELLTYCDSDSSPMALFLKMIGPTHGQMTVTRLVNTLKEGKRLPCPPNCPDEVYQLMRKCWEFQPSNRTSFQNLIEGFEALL
IC50 (JAK1; [1]) [nM],IC50 (JAK2; [2]) [nM],Structure (SMILES),"IC50 (JAK1; JAK1 IC50, HTRF biochemical assay) [nM]","IC50 (JAK2; JAK2 IC50, HTRF biochemical assay) [nM]"
0.26,0.15,"Cc1cc(Nc2nn([C@H]3CCCC[C@@H]3C#N)c3cc[nH]c(=O)c23)ccc1C(C)(C)n1nccn1 [Example 15-32, (1S,2S)-2-[3-({3-methyl-4-[1-methyl-1-(2H-1,2,3-triazol-2-yl)ethyl]phenyl}amino)-4-oxo-4,5-dihydro-1H-pyrazolo[4,3-c]pyridin-1-yl]cyclohexanecarbonitrile]",–,–
0.28,0.68,"CC(C)CN1Cc2ccc(Nc3nn([C@H]4CCCC[C@@H]4C#N)c4cc[nH]c(=O)c34)cc2C1 [Example 3-75, (1S,2S)-2-(3-{[2-(2-methylpropyl)-2,3-dihydro-1H-isoindol-5-yl]amino}-4-oxo-4,5-dihydro-1H-pyrazolo[4,3-c]pyridin-1-yl)cyclohexanecarbonitrile]",–,–
1.7,5.9,"CCOC(=O)c1cnn(-c2ccc(Nc3nn([C@H]4CCCC[C@@H]4C#N)c4cc[nH]c(=O)c34)cc2C)c1 [Example 15-15, ethyl 1-[4-({1-[(1S,2S)-2-cyanocyclohexyl]-4-oxo-4,5-dihydro-1H-pyrazolo[4,3-c]pyridin-3-yl}amino)-2-methylphenyl]-1H-pyrazole-4-carboxylate]",–,–
0.11,0.51,"N#C[C@H]1CCCC[C@@H]1n1nc(Nc2ccc3c(c2)CN(C2CCSCC2)C3=O)c2c(=O)[nH]ccc21 [Example 15-60, (1S,2S)-2-(4-oxo-3-{[1-oxo-2-(tetrahydro-2H-thiopyran-4-yl)-2,3-dihydro-1H-isoindol-5-yl]amino}-4,5-dihydro-1H-pyrazolo[4,3-c]pyridin-1-yl)cyclohexanecarbonitrile]",–,–
0.47,0.28,"Cc1cc(Nc2nn([C@H]3CCCC[C@@H]3C#N)c3cc[nH]c(=O)c23)ccc1C(=O)N1CCOCC1 [Example 3-68, (1S,2S)-2-(3-{[3-methyl-4-(morpholin-4-ylcarbonyl)phenyl]amino}-4-oxo-4,5-dihydro-1H-pyrazolo[4,3-c]pyridin-1-yl)cyclohexanecarbonitrile]",–,–
0.069,0.47,"N#C[C@H]1CCCC[C@@H]1n1nc(Nc2ccc3c(c2)CN([C@H]2CC[C@@H](C(=O)O)CC2)S3(=O)=O)c2c(=O)[nH]ccc21 [Example 16-2, (1S,4S)-4-(5-((1-((1S,2S)-2-cyanocyclohexyl)-4-oxo-4,5-dihydro-1H-pyrazolo[4,3-c]pyridin-3-yl)amino)-1,1-dioxidobenzo[d]isothiazol-2(3H)-yl)cyclohexanecarboxylic acid]",–,–
0.2,0.32,"C[C@@H](NCC(F)(F)F)c1ccc(Nc2nn([C@H]3CCCC[C@@H]3C#N)c3cc[nH]c(=O)c23)cc1 [Example 3-66, (1S,2S)-2-{4-oxo-3-[(4-{(1R)-1-[(2,2,2-trifluoroethyl)amino]ethyl}phenyl)amino]-4,5-dihydro-1H-pyrazolo[4,3-c]pyridin-1-yl}cyclohexanecarbonitrile]",–,–
0.095,0.34,"N#C[C@H]1CCCC[C@@H]1n1nc(Nc2ccc(Cn3ccnn3)cc2)c2c(=O)[nH]ccc21 [Example 3-46, (1S,2S)-2-(4-oxo-3-{[4-(1H-1,2,3-triazol-1-ylmethyl)phenyl]amino}-4,5-dihydro-1H-pyrazolo[4,3-c]pyridin-1-yl)cyclohexanecarbonitrile]",–,–
0.28,0.7,"N#C[C@H]1CCC[C@@H]1n1nc(Nc2ccc(C(N)C(F)(F)F)cc2)c2c(=O)[nH]ccc21 (single isomer, unassigned) [Example 3-103, (1S,2S)-2-[3-({4-[(1R or 1S)-1-amino-2,2,2-trifluoroethyl]phenyl}amino)-4-oxo-4,5-dihydro-1H-pyrazolo[4,3-c]pyridin-1-yl]cyclopentanecarbonitrile]",–,–
0.51,3.6,"N#C[C@H]1CCCC[C@@H]1n1nc(Nc2ccc(-c3ncon3)cc2)c2c(=O)[nH]ccc21 [Example 15-3, (1S,2S)-2-(3-{[4-(1,2,4-oxadiazol-3-yl)phenyl]amino}-4-oxo-4,5-dihydro-1H-pyrazolo[4,3-c]pyridin-1-yl)cyclohexanecarbonitrile]",–,–
–,–,"CC(C)(C)OC(=O)N1[C@@H]2CC[C@H]1C[C@H](c1ccc(Nc3nn([C@H]4CCCC[C@@H]4C#N)c4cc[nH]c(=O)c34)cc1)C2 (single isomer, unassigned) [Example 3-166]",0.96,6.5
0.2,0.53,"N#C[C@H]1CCCC[C@@H]1n1nc(Nc2ccc(CNCC(F)(F)F)cc2)c2c(=O)[nH]ccc21 [Example 3-57, (1S,2S)-2-{4-oxo-3-[(4-{[(2,2,2-trifluoroethyl)amino]methyl}phenyl)amino]-4,5-dihydro-1H-pyrazolo[4,3-c]pyridin-1-yl}cyclohexanecarbonitrile]",–,–
0.065,1.1,"N#CCCn1cc(-c2ccc(Nc3nn([C@H]4CCCC[C@@H]4C#N)c4cc[nH]c(=O)c34)cc2)cn1 [Example 15-14, (1S,2S)-2-[3-({4-[1-(2-cyanoethyl)-1H-pyrazol-4-yl]phenyl}amino)-4-oxo-4,5-dihydro-1H-pyrazolo[4,3-c]pyridin-1-yl]cyclohexanecarbonitrile]",–,–
0.31,0.43,"CC(C)[C@H](C)N1Cc2ccc(Nc3nn([C@H]4CCCC[C@@H]4C#N)c4cc[nH]c(=O)c34)cc2C1 [Example 3-148, (1S,2S)-2-[3-({2-[(1S)-1,2-dimethylpropyl]-2,3-dihydro-1H-isoindol-5-yl}amino)-4-oxo-4,5-dihydro-1H-pyrazolo[4,3-c]pyridin-1-yl]cyclohexanecarbonitrile]",–,–

Structure (SMILES),IC50 (JAK1; [1]) [nM],IC50 (JAK2; [2]) [nM],"IC50 (JAK1; JAK1 IC50, HTRF biochemical assay) [nM]","IC50 (JAK2; JAK2 IC50, HTRF biochemical assay) [nM]"
"N#CCC1(n2nc(Nc3ccc(C(N)C(F)F)cc3)c3c(=O)[nH]ccc32)CCCCC1 (single isomer, unassigned) [Example 9-2, (R or S)-2-(1-(3-(4-(1-Amino(-2,2-difluoroethyl)phenylamino)-4-oxo-4,5-dihydro-1H-pyrazolo[4,3-c]pyridin-1-yl)cyclohexyl)acetonitrile]",0.22,0.51,–,–
